Laboratory results taken from US9073918B2, “Pyrazolo[4,3-b]pyridine-7-amine inhibitors of ALK5” (Takeda Pharmaceutical Company Limited, priority 2010, dated 2015).

Target: T1, TGF-β R1 ALK5 (Homo sapiens, UniProt P36897)
T1 construct: purchased Invitrogen PV5837
T1 sequence (P36897 34-503): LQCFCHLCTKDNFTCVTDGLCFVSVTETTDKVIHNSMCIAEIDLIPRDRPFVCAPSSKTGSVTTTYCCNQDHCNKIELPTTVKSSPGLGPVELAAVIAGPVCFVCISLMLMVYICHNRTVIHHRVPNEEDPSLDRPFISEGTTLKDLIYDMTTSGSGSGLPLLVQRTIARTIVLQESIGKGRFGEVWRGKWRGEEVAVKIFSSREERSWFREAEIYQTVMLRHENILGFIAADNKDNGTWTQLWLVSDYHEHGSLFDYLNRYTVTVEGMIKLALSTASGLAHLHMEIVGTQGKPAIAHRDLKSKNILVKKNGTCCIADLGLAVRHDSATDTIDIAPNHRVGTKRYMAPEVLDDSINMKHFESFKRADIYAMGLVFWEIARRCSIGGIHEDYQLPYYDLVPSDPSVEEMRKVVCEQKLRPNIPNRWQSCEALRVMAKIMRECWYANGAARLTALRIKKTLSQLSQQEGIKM
Test: In vitro inhibition of ALK5 (LanthaScreen activity assay, TR-FRET)
Format: biochemical
Description: Test compounds were screened for TGF-β R1 ALK5 inhibition by use of a LanthaScreen™ activity assay (PV5837 Invitrogen, Invitrogen Corp. Madison, Wis.).
In brief, the assay procedure was as follows:
Solutions of test compounds were prepared in DMSO and diluted two-fold serially.
Assays were incubated for 90 minutes at room temperature and then quenched by the addition of 60 mM EDTA and 8 nM Terbium labeled anti-pSMAD3 Antibody (M4337 from Invitrogen) giving a final concentration of 15 mM EDTA and 2 nM Terbium labeled anti-pSMAD3 Antibody. Phosphorylated peptide product was quantified by measuring an increase in TR-FRET on a BMG LABTECH PHERA star plus. Response is defined as the ratio of Channel A/Channel B. The response of a blank (uninhibited) using vehicle alone is also determined. Enzyme activity was defined as the response of uninhibited enzyme activity minus the response of assays containing no enzyme. The percent inhibition of ALK5 at a given compound concentration is defined as: 100%×[1−(response compound/response blank)]
where response compound is defined as the enzyme activity in the presence of test compound and response blank is defined as the uninhibited enzyme activity. The pIC50 value (negative log of the molar concentration of the compound that produces 50% inhibition) of a test compound is calculated by non-linear least squares curve fitting of the equation: Percent Inhibition=100%/(1+(10−pIC50/10 log [I])).
Where inhibition was measured in multiple experiments the value in Table 1 is an average. N.T. means not tested.

IC50	Structure (SMILES)
6.31 nM	Cc1cnc(-c2cc(Cl)ccc2F)nc1Nc1ccnc2cnn(CC(N)=O)c12 [Example 3, 2-(7-(2-(5-chloro-2-fluorophenyl)-5-methylpyrimidin-4-ylamino)-1H-pyrazolo[4,3-b]pyridin-1-yl)acetamide]
6.31 nM	Cc1cnc(-c2cc(Cl)ccc2F)nc1Nc1ccnc2cn(CC(N)=O)nc12 [Example 4, 2-(7-(2-(5-chloro-2-fluorophenyl)-5-methylpyrimidin-4-ylamino)-2H-pyrazolo[4,3-b]pyridin-2-yl)acetamide]
251 nM	Cc1ccc(F)c(-c2cc(Nc3ccnc4cn(CC(C)(C)O)nc34)c(C)cn2)n1 [Example 8, 1-(7-(3′-fluoro-5,6′-dimethyl-2,2′-bipyridin-4-ylamino)-2H-pyrazolo[4,3-b]pyridin-2-yl)-2-methylpropan-2-ol]
7.94 nM	Cc1ccc(F)c(-c2cc(Nc3ccnc4cn(CCO)nc34)c(C)cn2)n1 [Example 9, 2-(7-(3′-fluoro-5,6′-dimethyl-2,2′-bipyridin-4-ylamino)-2H-pyrazolo[4,3-b]pyridin-2-yl)ethanol]
2.51 nM	Cc1ccc(F)c(-c2cc(Nc3ccnc4cn[nH]c34)c(C)cn2)n1 [Example 11, N-(3′-fluoro-5,6′-dimethyl-2,2′-bipyridin-4-yl)-1H-pyrazolo[4,3-b]pyridin-7-amine]
31.6 nM	Cc1cccc(-c2cc(Nc3ccnc4cn(CC(N)=O)nc34)c(C)cn2)n1 [Example 12, 2-(7-(5,6′-dimethyl-2,2′-bipyridin-4-ylamino)-2H-pyrazolo[4,3-b]pyridin-2-yl)acetamide]
2.51 nM	Cc1ccc(F)c(-c2cc(Nc3ccnc4cnn(CC(N)=O)c34)c(C)cn2)n1 [Example 13, 2-(7-(3′-fluoro-5,6′-dimethyl-2,2′-bipyridin-4-ylamino)-1H-pyrazolo[4,3-b]pyridin-1-yl)acetamide]
10 nM	Cc1ccc(F)c(-c2cc(Nc3ccnc4cn(CC(N)=O)nc34)c(C)cn2)n1 [Example 14, 2-(7-(3′-fluoro-5,6′-dimethyl-2,2′-bipyridin-4-ylamino)-2H-pyrazolo[4,3-b]pyridin-2-yl)acetamide]
316 nM	Fc1ccc(Cl)cc1-c1cc(Nc2ccnc3cn(CC4CCOCC4)nc23)ccn1 [Example 23, N-(2-(5-chloro-2-fluorophenyl)pyridin-4-yl)-2-((tetrahydro-2H-pyran-4-yl)methyl)-2H-pyrazolo[4,3-b]pyridin-7-amine]
1580 nM	Fc1ccc(Cl)cc1-c1cc(Nc2ccnc3cnn(CC4CCOCC4)c23)ccn1 [Example 24, N-(2-(5-chloro-2-fluorophenyl)pyridin-4-yl)-1-((tetrahydro-2H-pyran-4-yl)methyl)-1H-pyrazolo[4,3-b]pyridin-7-amine]
2510 nM	Fc1ccc(Cl)cc1-c1cc(Nc2ccnc3cn(CC4CCCO4)nc23)ccn1 (stereo not shown) [Example 25, N-(2-(5-chloro-2-fluorophenyl)pyridin-4-yl)-2-((tetrahydrofuran-2-yl)methyl)-2H-pyrazolo[4,3-b]pyridin-7-amine]
2510 nM	Fc1ccc(Cl)cc1-c1cc(Nc2ccnc3cnn(CC4CCNCC4)c23)ccn1 [Example 26, N-(2-(5-chloro-2-fluorophenyl)pyridin-4-yl)-1-(piperidin-4-ylmethyl)-1H-pyrazolo[4,3-b]pyridin-7-amine]
50.1 nM	NC(=O)n1ncc2nccc(Nc3ccnc(-c4cc(Cl)ccc4F)c3)c21 [Example 30, 7-(2-(5-chloro-2-fluorophenyl)pyridin-4-ylamino)-1H-pyrazolo[4,3-b]pyridine-1-carboxamide]
251 nM	CN(C)C(=O)Cn1ncc2nccc(Nc3ccnc(-c4cc(Cl)ccc4F)c3)c21 [Example 38, 2-(7-(2-(5-chloro-2-fluorophenyl)pyridin-4-ylamino)-1H-pyrazolo[4,3-b]pyridin-1-yl)-N,N-dimethylacetamide]
316 nM	O=C1NCCN1CCn1ncc2nccc(Nc3ccnc(-c4cc(Cl)ccc4F)c3)c21 [Example 41, 1-(2-(7-(2-(5-chloro-2-fluorophenyl)pyridin-4-ylamino)-1H-pyrazolo[4,3-b]pyridin-1-yl)ethyl)imidazolidin-2-one]
316 nM	O=C(Cn1ncc2nccc(Nc3ccnc(-c4cc(Cl)ccc4F)c3)c21)N1CCOCC1 [Example 42, 2-(7-(2-(5-chloro-2-fluorophenyl)pyridin-4-ylamino)-1H-pyrazolo[4,3-b]pyridin-1-yl)-1-morpholinoethanone]

IC50	Structure (SMILES)
31.6 nM	NC(=O)Cn1ncc2nccc(Nc3ccnc(-c4cc(Cl)ccc4F)c3)c21 [Example 44, 2-(7-(2-(5-chloro-2-fluorophenyl)pyridin-4-ylamino)-1H-pyrazolo[4,3-b]pyridin-1-yl)acetamide]
50.1 nM	CC(C(N)=O)n1cc2nccc(Nc3ccnc(-c4cc(Cl)ccc4F)c3)c2n1 (stereo not shown) [Example 45, 2-(7-(2-(5-chloro-2-fluorophenyl)pyridin-4-ylamino)-2H-pyrazolo[4,3-b]pyridin-2-yl)propanamide]
12.6 nM	CCS(=O)(=O)n1cc2nccc(Nc3cc(-c4cc(Cl)ccc4F)ncc3C)c2n1 [Example 56, N-(2-(5-chloro-2-fluorophenyl)-5-methylpyridin-4-yl)-2-(ethylsulfonyl)-2H-pyrazolo[4,3-b]pyridin-7-amine]
39.8 nM	Cc1cc(Nc2ccnc3cn[nH]c23)cc(-c2cc(Cl)ccc2F)n1 [Example 57, N-(2-(5-chloro-2-fluorophenyl)-6-methylpyridin-4-yl)-1H-pyrazolo[4,3-b]pyridin-7-amine]
316 nM	CCNC(=O)n1ncc2nccc(Nc3cc(C)nc(-c4cc(Cl)ccc4F)c3)c21 [Example 59, 7-(2-(5-chloro-2-fluorophenyl)-6-methylpyridin-4-ylamino)-N-ethyl-1H-pyrazolo[4,3-b]pyridine-1-carboxamide]
251 nM	CCS(=O)(=O)n1cc2nccc(Nc3cc(C)nc(-c4cc(Cl)ccc4F)c3)c2n1 [Example 61, N-(2-(5-chloro-2-fluorophenyl)-6-methylpyridin-4-yl)-2-(ethylsulfonyl)-2H-pyrazolo[4,3-b]pyridin-7-amine]
12.6 nM	CCNC(=O)n1ncc2nccc(Nc3ccnc(-c4cc(Cl)c(F)cc4F)c3)c21 [Example 62, 7-(2-(5-chloro-2,4-difluorophenyl)pyridin-4-ylamino)-N-ethyl-1H-pyrazolo[4,3-b]pyridine-1-carboxamide]
126 nM	Cc1ccc(F)c(-c2cc(Nc3ccnc4c[nH]nc34)ccn2)n1 [Example 64, N-(3′-fluoro-6′-methyl-2,2′-bipyridin-4-yl)-2H-pyrazolo[4,3-b]pyridin-7-amine]
158 nM	Cc1ccc(F)c(-c2cc(Nc3ccnc4cn(CCO)nc34)ccn2)n1 [Example 72, 2-(7-(3′-fluoro-6′-methyl-2,2′-bipyridin-4-ylamino)-2H-pyrazolo[4,3-b]pyridin-2-yl)ethanol]
39.8 nM	CNC(=O)n1ncc2nccc(Nc3ccnc(-c4nc(C)ccc4F)c3)c21 [Example 74, 7-(3′-fluoro-6′-methyl-2,2′-bipyridin-4-ylamino)-N-methyl-1H-pyrazolo[4,3-b]pyridine-1-carboxamide]
25.1 nM	CNC(=O)n1ncc2nccc(Nc3ccnc(-c4cc(C)ccc4F)c3)c21 [Example 75, 7-(2-(2-fluoro-5-methylphenyl)pyridin-4-ylamino)-N-methyl-1H-pyrazolo[4,3-b]pyridine-1-carboxamide]
631 nM	Cc1ccc(F)c(-c2cc(Nc3ccnc4cnn(C5CCN(S(C)(=O)=O)CC5)c34)ccn2)c1 [Example 78, N-(2-(2-fluoro-5-methylphenyl)pyridin-4-yl)-1-(1-(methylsulfonyl)piperidin-4-yl)-1H-pyrazolo[4,3-b]pyridin-7-amine]
31.6 nM	CCNC(=O)n1ncc2nccc(Nc3ccnc(-c4cc(C)ccc4F)c3)c21 [Example 80, N-ethyl-7-(2-(2-fluoro-5-methylphenyl)pyridin-4-ylamino)-1H-pyrazolo[4,3-b]pyridine-1-carboxamide]
31.6 nM	Cc1ccc(F)c(-c2cc(Nc3ccnc4cn(CC(N)=O)nc34)ccn2)n1 [Example 84, 2-(7-(3′-fluoro-6′-methyl-2,2′-bipyridin-4-ylamino)-2H-pyrazolo[4,3-b]pyridin-2-yl)acetamide]
25.1 nM	Cc1ccc(F)c(-c2cc(Nc3ccnc4cnn(CC(N)=O)c34)ccn2)n1 [Example 85, 2-(7-(3′-fluoro-6′-methyl-2,2′-bipyridin-4-ylamino)-1H-pyrazolo[4,3-b]pyridin-1-yl)acetamide]
